Literature values in US10822355B2, “Ultralow-power near infrared lamp light operable targeted organic nanoparticle photodynamic therapy” (University of Massachusetts, priority 2016, dated 2020).

Key:
[1] = for ε: at 525 nm (B-1), 630 nm (B-2), 661 nm (B-3); for ΦF (%) / ε/10^5 M^−1 cm^−1 / λabs (max) / λem (max): literature values (References S2, S6, S7)
[2] = for ΦΔ (%): literature values (References S2, S6, S7)

| Compound | ε [1] [M⁻¹ cm⁻¹] | ΦF (%) [1] [%] | ε/10^5 M^−1 cm^−1 [1] | λabs (max) [1] | λem (max) [1] | ΦΔ (%) [2] [%] | ΦΔ of reference ([2]; in dichloromethane) |
| --- | --- | --- | --- | --- | --- | --- | --- |
| 2,6-diiodiodistyl-BODIPY [B-2] | 77000 | 5 | 0.77 10^5 M^−1 cm^−1 | 630 | 654 | 69.0 |  |
| 2,6-diiodio-BODIPY [B-1] | 85000 | 3 | 0.85 10^5 M^−1 cm^−1 | 529 | 548 | 79.5 |  |
| CN(C)c1ccc2nc3ccc(=[N+](C)C)cc-3sc2c1 [methyl blue, methylene blue] |  |  |  |  |  |  | 0.52 |
| 2,6-diiodiodistyl-BODIPY [B-3] | 98000 | 7 | 0.98 10^5 M^−1 cm^−1 | 661 | 689 | 61.2 |  |
